Here are results for one compound from ChEMBL document CHEMBL1142966, “Enhanced antileukemic activity of the novel complex 2,5-dihydroxybenzoate molybdenum(VI) against 2,5-dihydroxybenzoate, polyoxometalate of Mo(VI), and tetraphenylphosphonium in the human HL-60 and K562 leukemic cell lines” (J Med Chem, 2007).

Format in all cases: cell-based
Series [1] has as its system K562. Nature of the series: Cytotoxicity against human K562 cells at 1000 ug/mL by trypan blue assay after 24 hrs. To be noted: k562, 24 h.
The test system of series [2] is HL-60. The series can be described thus: Cytotoxicity against human HL60 cells at 1000 ug/mL by trypan blue assay after 24 hrs. To be noted: hl-60, 24 h.
Series [3] deals with K562. Nature of the series: Cytotoxicity against human K562 cells at 100 ug/mL by trypan blue assay after 72 hrs. To be noted: k562, 72 h.
Series [4] concerns HL-60. The series can be described thus: Cytotoxicity against human HL60 cells at 1000 ug/mL by trypan blue assay after 48 hrs. To be noted: hl-60, 48 h.
The test system of series [5] is HL-60. Nature of the series: Cytotoxicity against human HL60 cells at 100 ug/mL by trypan blue assay after 48 hrs. The settings on record: hl-60, 48 h.
Series [6] concerns HL-60. The series can be described thus: Cytotoxicity against human HL60 cells at 10000 ug/mL by trypan blue assay after 24 hrs. The settings on record: hl-60, 24 h.
In series [7] the test system is HL-60. The series can be described thus: Cytotoxicity against human HL60 cells at 1000 ug/mL by trypan blue assay after 72 hrs. The settings on record: hl-60, 72 h.
Series [8] has as its system K562. Nature of the series: Cytotoxicity against human K562 cells at 10000 ug/mL by trypan blue assay after 72 hrs. To be noted: k562, 72 h.
In series [9] the test system is K562. The series can be described thus: Cytotoxicity against human K562 cells at 10000 ug/mL by trypan blue assay after 24 hrs. To be noted: k562, 24 h.
Series [10] deals with K562. The series can be described thus: Cytotoxicity against human K562 cells at 1000 ug/mL by trypan blue assay after 72 hrs. To be noted: k562, 72 h.
Series [11] relates to K562. The series can be described thus: Cytotoxicity against human K562 cells at 10 ug/mL by trypan blue assay after 48 hrs. The settings on record: k562, 48 h.
The subject of series [12] is HL-60. Nature of the series: Cytotoxicity against human HL60 cells at 100 ug/mL by trypan blue assay after 24 hrs. The settings on record: hl-60, 24 h.
Series [13] has as its system K562. The series can be described thus: Cytotoxicity against human K562 cells at 10 ug/mL by trypan blue assay after 24 hrs. To be noted: k562, 24 h.
In series [14] the test system is K562. Nature of the series: Cytotoxicity against human K562 cells at 100 ug/mL by trypan blue assay after 24 hrs. The settings on record: k562, 24 h.
Series [15] relates to K562. The series can be described thus: Cytotoxicity against human K562 cells at 10 ug/mL by trypan blue assay after 72 hrs. To be noted: k562, 72 h.
Series [16] relates to HL-60. Nature of the series: Cytotoxicity against human HL60 cells at 10 ug/mL by trypan blue assay after 72 hrs. To be noted: hl-60, 72 h.
Series [17] relates to K562. Nature of the series: Cytotoxicity against human K562 cells at 10000 ug/mL by trypan blue assay after 48 hrs. To be noted: k562, 48 h.
Series [18] deals with HL-60. Nature of the series: Cytotoxicity against human HL60 cells at 100 ug/mL by trypan blue assay after 72 hrs. To be noted: hl-60, 72 h.
For series [19], the system named is HL-60. The series can be described thus: Cytotoxicity against human HL60 cells at 10000 ug/mL by trypan blue assay after 72 hrs. The settings on record: hl-60, 72 h.
Series [20] has as its system HL-60. The series can be described thus: Cytotoxicity against human HL60 cells at 10000 ug/mL by trypan blue assay after 48 hrs. The settings on record: hl-60, 48 h.
Series [21] has as its system K562. The series can be described thus: Cytotoxicity against human K562 cells at 1000 ug/mL by trypan blue assay after 48 hrs. The settings on record: k562, 48 h.
Series [22] deals with K562. The series can be described thus: Cytotoxicity against human K562 cells at 100 ug/mL by trypan blue assay after 48 hrs. To be noted: k562, 48 h.
Series [23] has as its system HL-60. The series can be described thus: Cytotoxicity against human HL60 cells at 10 ug/mL by trypan blue assay after 48 hrs. The settings on record: hl-60, 48 h.
Series [24] has as its system HL-60. Nature of the series: Cytotoxicity against human HL60 cells at 10 ug/mL by trypan blue assay after 24 hrs. The settings on record: hl-60, 24 h.

Turning to `[Cl-].c1ccc([P+](c2ccccc2)(c2ccccc2)c2ccccc2)cc1` [TETRAPHENYLPHOSPHONIUM CHLORIDE], the Activity in [1], in series [2], in [3], in [4], in series [5] and in [6] was 100% in each case. In addition, the Activity in series [7] is 100%; in [8] it was 100%; in series [9], 100%; in series [10] it was 100%; in [11] it was 100%; in series [12], 4.5%. In addition, the Activity in series [13] is reported as 56.8%; in series [14] it was 41.8%; in [15], 100%; in series [16] it was 100%; in series [17], 100%; in series [18] it was 100%. The Activity was found to be 100% in series [19]; 100% in [20]; 100% in [21]; 100% in series [22]; 100% in series [23]; 1% in series [24].
